The values below come from US10758534B2 (Vertex Pharmaceuticals Incorporated, priority 2014, dated 2020).

The test deals with T1, F508del (Homo sapiens, UniProt P13569, DEL508-508).
T1 construct: expressed in transfected cells
The experiment in a line: Protocol 2: FRET membrane potential optical assay (VIPR), identification of correction compounds. The format is cell-based. In outline:
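Corrector readout: membrane-potential FRET (CC2-DMPE donor, DiSBAC2(3) acceptor) on VIPR II after Cl⁻-free gluconate bath with 10 μM forskolin and 20 μM genistein. Before this, F508del-expressing NIH3T3 cells were exposed to test compound for 16 h at 37 °C without serum; 27 °C incubation served as temperature-correction control.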

Setting [1] is: Table 3, compounds of Table 1 as modulators of CFTR activity, protocol not stated.
Where [2] appears, read: F508del CFTR modulator activity, compounds of Table 1, read-out: EC30.

Like-named read-outs stand apart in the source and are kept apart here. Bounds are passed on as bounds.

T1 sequence (P13569 with tags, fused parts or gaps DEL508-508): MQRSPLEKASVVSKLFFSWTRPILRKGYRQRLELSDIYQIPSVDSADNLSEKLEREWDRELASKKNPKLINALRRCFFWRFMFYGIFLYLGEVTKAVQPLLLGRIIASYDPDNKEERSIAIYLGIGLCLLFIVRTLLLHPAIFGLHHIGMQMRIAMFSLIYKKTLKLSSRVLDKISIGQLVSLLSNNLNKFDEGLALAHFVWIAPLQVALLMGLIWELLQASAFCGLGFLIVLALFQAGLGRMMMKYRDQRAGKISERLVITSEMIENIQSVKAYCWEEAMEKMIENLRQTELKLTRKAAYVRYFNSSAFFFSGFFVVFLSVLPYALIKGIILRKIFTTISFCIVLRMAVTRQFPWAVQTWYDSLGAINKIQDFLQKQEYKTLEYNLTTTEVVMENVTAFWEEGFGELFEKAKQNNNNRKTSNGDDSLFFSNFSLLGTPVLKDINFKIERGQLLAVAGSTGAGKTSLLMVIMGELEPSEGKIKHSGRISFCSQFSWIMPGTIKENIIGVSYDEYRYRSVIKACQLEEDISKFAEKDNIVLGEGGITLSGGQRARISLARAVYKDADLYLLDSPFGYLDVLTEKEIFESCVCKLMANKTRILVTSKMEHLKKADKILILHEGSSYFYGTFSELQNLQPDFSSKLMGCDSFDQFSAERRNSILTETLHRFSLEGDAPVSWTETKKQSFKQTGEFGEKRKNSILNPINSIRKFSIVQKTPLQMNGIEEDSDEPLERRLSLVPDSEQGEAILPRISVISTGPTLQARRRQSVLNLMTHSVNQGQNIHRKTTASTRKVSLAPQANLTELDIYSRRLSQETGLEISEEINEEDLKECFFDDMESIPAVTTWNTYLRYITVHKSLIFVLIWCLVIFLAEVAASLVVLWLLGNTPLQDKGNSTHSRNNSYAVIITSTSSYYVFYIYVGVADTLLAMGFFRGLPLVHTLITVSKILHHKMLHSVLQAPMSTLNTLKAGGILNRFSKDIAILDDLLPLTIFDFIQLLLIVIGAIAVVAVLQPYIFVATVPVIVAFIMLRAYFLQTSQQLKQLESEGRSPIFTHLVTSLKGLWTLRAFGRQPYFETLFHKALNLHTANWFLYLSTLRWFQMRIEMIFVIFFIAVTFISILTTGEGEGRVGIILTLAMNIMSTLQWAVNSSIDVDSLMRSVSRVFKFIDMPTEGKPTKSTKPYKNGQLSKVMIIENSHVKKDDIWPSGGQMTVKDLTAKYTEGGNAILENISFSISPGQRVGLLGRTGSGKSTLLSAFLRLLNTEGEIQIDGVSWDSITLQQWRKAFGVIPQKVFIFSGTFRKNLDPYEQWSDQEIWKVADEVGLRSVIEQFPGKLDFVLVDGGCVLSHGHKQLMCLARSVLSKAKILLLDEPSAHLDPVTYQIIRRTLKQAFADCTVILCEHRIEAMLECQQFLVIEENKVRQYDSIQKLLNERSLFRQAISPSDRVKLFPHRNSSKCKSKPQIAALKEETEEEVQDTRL

Consider `CC(C)Oc1ccc(-c2nc(N3[C@H](C)CC[C@@H]3C)c(C(=O)NS(=O)(=O)c3cccc(N)n3)cc2Br)cn1` [Compound 390, N-[(6-amino-2-pyridyl)sulfonyl]-5-bromo-2-[(2S,5R)-2,5-dimethylpyrrolidin-1-yl]-6-(6-isopropoxy-3-pyridyl)pyridine-3-carboxamide], for which, under setting [1], the 30% effect concentration (EC30) entry was “+++ (“+++” means <3 uM)”.

On to `Cc1cc(C)c(Oc2nc(C(C)(C)C)ccc2C(=O)NS(=O)(=O)c2nc(N)ccc2F)c(C)c1` [Compound 226, N-[(6-Amino-3-fluoro-2-pyridyl)sulfonyl]-6-tert-butyl-2-(2,4,6-trimethylphenoxy)pyridine-3-carboxamide], for which, under setting [1], the EC30 entry is reported as “+++ (“+++” means <3 uM)”.

For `Cc1cc(C)c(Oc2nc(C)c(C#N)cc2C(=O)NS(=O)(=O)c2cccc(N)c2)c(C)c1` [Compound 124, N-(3-aminophenyl)sulfonyl-5-cyano-6-methyl-2-(2,4,6-trimethylphenoxy)pyridine-3-carboxamide], the EC30 result under setting [1] was “++ (“++” means between 3 uM and 10 uM)”.

On to `CC(C)Oc1cc(-c2ccc(C(=O)NS(=O)(=O)c3ccn[nH]3)c(N3[C@H](C)CC[C@@H]3C)n2)ccc1Cl` [Compound 701, 6-(4-chloro-3-isopropoxy-phenyl)-2-[(2S,5R)-2,5-dimethylpyrrolidin-1-yl]-N-(1H-pyrazol-5-ylsulfonyl)pyridine-3-carboxamide], for which the EC30 entry under setting [1] is listed as “+++ (“+++” means <3 uM)”.

Take `CCOc1cccc(-c2ccc(C(=O)NS(=O)(=O)c3ccc[nH]c3=O)c(N3C[C@@H](C)CC3(C)C)n2)c1` [Compound 2235, 6-(3-ethoxyphenyl)-N-[(2-oxo-1H-pyridin-3-yl)sulfonyl]-2-[(4S)-2,2,4-trimethylpyrrolidin-1-yl]pyridine-3-carboxamide]: the EC30 under setting [2] was under 3000 nM.

Take `C[C@@H]1CN(c2nc(-n3ccc(-c4ccccc4)n3)ccc2C(=O)NS(=O)(=O)C2CC2)C(C)(C)C1` [Compound 2674, N-cyclopropylsulfonyl-6-(3-phenylpyrazol-1-yl)-2-[(4S)-2,2,4-trimethylpyrrolidin-1-yl]pyridine-3-carboxamide]: the EC30 under setting [2] is under 3000 nM.

For the compound `COc1ccc(-c2ccc(C(=O)NS(=O)(=O)c3cccnc3N)c(N3C[C@@H](C)CC3(C)C)n2)c(C)c1C` [Compound 2450, N-[(2-amino-3-pyridyl)sulfonyl]-6-(4-methoxy-2,3-dimethyl-phenyl)-2-[(4S)-2,2,4-trimethylpyrrolidin-1-yl]pyridine-3-carboxamide], the 30% effect concentration (EC30) under setting [2] is under 3000 nM.

For the compound `C[C@@H]1CN(c2nc(C(C)(C)C)c(C(O)C(O)C(C)(C)C)cc2C(=O)NS(=O)(=O)c2cccc(N)n2)C(C)(C)C1` (stereo partly drawn) [Compound 2370], the concentration for an effect of 30% (EC30) under setting [2] is under 3000 nM.

For the compound `C[C@@H]1CN(c2nc(-c3cc(F)cc(F)c3)ccc2C(=O)NS(=O)(=O)c2ccc[nH]c2=O)C(C)(C)C1` [Compound 2652, 6-(3,5-difluorophenyl)-N-[(2-oxo-1H-pyridin-3-yl)sulfonyl]-2-[(4S)-2,2,4-trimethylpyrrolidin-1-yl]pyridine-3-carboxamide], the EC30 under setting [2] was under 3000 nM.

Regarding `C[C@@H]1CN(c2nc3ccccc3cc2C(=O)NS(=O)(=O)c2cccc(N)n2)C(C)(C)C1` [Compound 2265, N-[(6-amino-2-pyridyl)sulfonyl]-2-[(4S)-2,2,4-trimethylpyrrolidin-1-yl]quinoline-3-carboxamide], the EC30 under setting [2] was under 3000 nM.

`CC1CN(c2ncccc2C(=O)NS(=O)(=O)c2cccc(OCc3ccc(F)c(F)c3)n2)C(C)(C)C1` (stereo not drawn) [Compound 2533, N—[[6-[(3,4-difluorophenyl)methoxy]-2-pyridyl]sulfonyl]-2-(2,2,4-trimethylpyrrolidin-1-yl)pyridine-3-carboxamide]: the concentration for an effect of 30% (EC30) under setting [2] is under 3000 nM.

As for `Cc1cc(C)c(CN2Cc3ccccc3CCC2C(=O)NS(=O)(=O)c2cccc(N)n2)c(C)c1` (stereo not drawn) [Compound 690, N-[(6-amino-2-pyridyl)sulfonyl]-2-[(2,4,6-trimethylphenyl)methyl]-1,3,4,5-tetrahydro-2-benzazepine-3-carboxamide], the concentration for an effect of 30% (EC30) entry under setting [1] is “++ (“++” means between 3 uM and 10 uM)”.

`C[C@@H]1CN(c2nc(-c3cccc(F)c3O)ccc2C(=O)NS(=O)(=O)c2cccc(N)n2)C(C)(C)C1` [Compound 2386, N-[(6-amino-2-pyridyl)sulfonyl]-6-(3-fluoro-2-hydroxy-phenyl)-2-[(4S)-2,2,4-trimethylpyrrolidin-1-yl]pyridine-3-carboxamide]: the EC30 under setting [2] was under 3000 nM.

As to `CC(C)(C)c1cc(C(=O)NS(=O)(=O)c2ccccc2)n(Cc2cccc3ccccc23)n1` [Compound 328, N-(benzenesulfonyl)-5-tert-butyl-2-(1-naphthylmethyl)pyrazole-3-carboxamide], under setting [1], the concentration for an effect of 30% (EC30) entry was “+++ (“+++” means <3 uM)”.

With `CC(C)COc1cc(F)cc(-c2ccc(C(=O)NS(=O)(=O)c3cccc(N)n3)c(N3CC[C@@H](C)C3(C)C)n2)c1` [Compound 657, N-[(6-amino-2-pyridyl)sulfonyl]-6-(3-fluoro-5-isobutoxy-phenyl)-2-[(3R)-2,2,3-trimethylpyrrolidin-1-yl]pyridine-3-carboxamide], under setting [1], the EC30 entry is reported as “+++ (“+++” means <3 uM)”.

As to `CC1CN(c2ncccc2C(=O)NS(=O)(=O)c2cccc(NC(C)C)n2)C(C)(C)C1` (stereo not drawn) [Compound 2200, N—[[6-(isopropylamino)-2-pyridyl]sulfonyl]-2-(2,2,4-trimethylpyrrolidin-1-yl)pyridine-3-carboxamide], the 30% effect concentration (EC30) under setting [2] fell in the range of 3000 to 10000 nM.

In the case of `CC(C)(C)c1ccc(C(=O)NS(=O)(=O)c2cccc(N)n2)c(-c2ccccc2)n1` [Compound 334, N-[(6-amino-2-pyridyl)sulfonyl]-6-tert-butyl-2-phenyl-pyridine-3-carboxamide], the concentration for an effect of 30% (EC30) result under setting [1] was “++ (“++” means between 3 uM and 10 uM)”.

As for `COc1cc(-c2ccc(C(=O)NS(=O)(=O)c3ccc[nH]c3=O)c(Oc3c(C)cc(C)cc3C)n2)ccc1F` [Compound 624, 6-(4-fluoro-3-methoxy-phenyl)-N-[(2-oxo-1H-pyridin-3-yl)sulfonyl]-2-(2,4,6-trimethylphenoxy)pyridine-3-carboxamide], under setting [1], the EC30 result is “++ (“++” means between 3 uM and 10 uM)”.

Consider `C[C@@H]1CN(c2nc(-c3ccc(F)cc3O)ccc2C(=O)NS(=O)(=O)c2cccnc2N)C(C)(C)C1` [Compound 2653, N-[(2-amino-3-pyridyl)sulfonyl]-6-(4-fluoro-2-hydroxy-phenyl)-2-[(4S)-2,2,4-trimethylpyrrolidin-1-yl]pyridine-3-carboxamide], for which the EC30 under setting [2] was under 3000 nM.

As to `CC1CN(c2ncccc2C(=O)NS(=O)(=O)c2cccc(NCCc3ccccc3Cl)n2)C(C)(C)C1` (stereo not drawn) [Compound 2632, N—[[6-[2-(2-chlorophenyl)ethylamino]-2-pyridyl]sulfonyl]-2-(2,2,4-trimethylpyrrolidin-1-yl)pyridine-3-carboxamide], under setting [2], the EC30 is under 3000 nM.

In the case of `CC(C)Oc1ccccc1-c1ccc(C(=O)NS(=O)(=O)c2cccnc2N)c(N2C[C@@H](C)CC2(C)C)n1` [Compound 2623, N-[(2-amino-3-pyridyl)sulfonyl]-6-(2-isopropoxyphenyl)-2-[(4S)-2,2,4-trimethylpyrrolidin-1-yl]pyridine-3-carboxamide], under setting [2], the EC30 was 3000 to 10000 nM.

Consider `C[C@@H]1CN(c2nc(-c3cc(F)ccc3O)ccc2C(=O)NS(=O)(=O)c2ccc[nH]c2=O)C(C)(C)C1` [Compound 2295, 6-(5-fluoro-2-hydroxy-phenyl)-N-[(2-oxo-1H-pyridin-3-yl)sulfonyl]-2-[(4S)-2,2,4-trimethylpyrrolidin-1-yl]pyridine-3-carboxamide], for which the EC30 under setting [2] was in the range of 3000 to 10000 nM.

`Cc1ccc(Oc2nc3c(cc2C(=O)NS(=O)(=O)c2cccc(N)n2)CCCC3(C)C)c(C)c1` [Compound 15, N-[(6-amino-2-pyridyl)sulfonyl]-2-(2,4-dimethylphenoxy)-8,8-dimethyl-6,7-dihydro-5H-quinoline-3-carboxamide]: the 30% effect concentration (EC30) result under setting [1] is “+++ (“+++” means <3 uM)”.

As to `CC(C)COc1cc(F)cc(-c2ccc(C(=O)NS(=O)(=O)c3cccc(N)n3)c(N3CCCCC3C)n2)c1` (stereo not drawn) [Compound 425, N-[(6-amino-2-pyridyl)sulfonyl]-6-(3-fluoro-5-isobutoxy-phenyl)-2-(2-methyl-1-piperidyl)pyridine-3-carboxamide], under setting [1], the EC30 entry is “+++ (“+++” means <3 uM)”.

On to `CC1CN(c2ncccc2C(=O)NS(=O)(=O)c2cccc(Nc3ccc(F)cc3)n2)C(C)(C)C1` (stereo not drawn) [Compound 2102, N—[[6-(4-fluoroanilino)-2-pyridyl]sulfonyl]-2-(2,2,4-trimethylpyrrolidin-1-yl)pyridine-3-carboxamide], for which, under setting [2], the concentration for an effect of 30% (EC30) is under 3000 nM.

As to `Cc1cccc(C)c1Cn1nc(-c2ccc3c(ccn3C)c2)cc1C(=O)NS(=O)(=O)c1ccccc1` [Compound 263, N-(benzenesulfonyl)-2-[(2,6-dimethylphenyl)methyl]-5-(1-methylindol-5-yl)pyrazole-3-carboxamide], the EC30 result under setting [1] was “+++ (“+++” means <3 uM)”.

`Cc1cc(C)c(CN2Cc3ccccc3CC2C(=O)NS(=O)(=O)c2cccc(N)c2)c(C)c1` (stereo not drawn) [Compound 213, N-(3-aminophenyl)sulfonyl-2-[(2,4,6-trimethylphenyl)methyl]-3,4-dihydro-1H-isoquinoline-3-carboxamide]: under setting [1], the EC30 result is “+++ (“+++” means <3 uM)”.

For `CCOCCOCCN(C)c1ncc(-c2ccc(C(=O)NS(=O)(=O)c3cccc(N)n3)c(N3C[C@@H](C)CC3(C)C)n2)cc1C` [Compound 2681], the EC30 under setting [2] is under 3000 nM.

For the compound `CC1CCN(c2nc(-c3cc(F)cc(OCC4CC4)c3)ccc2C(=O)NS(=O)(=O)c2ccc[nH]c2=O)CC1` [Compound 664, 6-[3-(cyclopropylmethoxy)-5-fluoro-phenyl]-2-(4-methyl-1-piperidyl)-N-[(2-oxo-1H-pyridin-3-yl)sulfonyl]pyridine-3-carboxamide], under setting [1], the 30% effect concentration (EC30) entry is given as “+++ (“+++” means <3 uM)”.

Consider `Cc1cc(C)c(Oc2nc3c(cc2C(=O)NS(=O)(=O)c2cccc(N)n2)CCCC3(C)C)c(C)c1` [Compound 182, N-[(6-amino-2-pyridyl)sulfonyl]-8,8-dimethyl-2-(2,4,6-trimethylphenoxy)-6,7-dihydro-5H-quinoline-3-carboxamide], for which the concentration for an effect of 30% (EC30) result under setting [1] is “+++ (“+++” means <3 uM)”.

For orientation: EC30 means the concentration needed for an effect of 30%.
